Assays:
Format in all cases: cell-based, Escherichia coli
[1] = system: EKO-35-Pore; experiment: MIC susceptibility profiling, porinated strain; details: for Fold changes of MICs: EKO-35-Pore compared to EKO-35-Pore (reference); for Minimum inhibitory concentration (MIC), Pore EKO-35: Table 10, with pore; for Minimum inhibitory concentration (MIC), Pore EKO-35 / Minimum inhibitory concentration, EKO-35-Pore: technical duplicate; for Minimum inhibitory concentration, EKO-35-Pore: Table 14A, porinated
Summary of the method: (§1)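 Strains carry the fhuA ΔC/Δ4L pore integrated between glmS and pstS under a constitutive promoter, with pore activity checked by vancomycin susceptibility. Overnight LB cultures were adjusted in PBS pH 7.4 to OD600 ~1.0 and diluted 1/2000 into MHB II. 2-fold compound titrations were read by OD600 after 18 h at 37 °C.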

[2] = system: EKO-35 araC::acrB Pore; experiment: MIC susceptibility profiling, porinated efflux platform; details: for Fold changes of MICs: EKO-35 araC::acr-B Pore compared to EKO-35-Pore; for Minimum inhibitory concentration, EKO-35 araC::acrB Pore: Table 14A, porinated, technical duplicate
Summary of the method: as §1

[3] = system: EKO-35 araC::emrKY Pore; experiment: as above; details: for Fold changes of MICs: EKO-35 araC::emrKY Pore compared to EKO-35-Pore; for Minimum inhibitory concentration: EKO-35 araC::emrKY Pore, technical duplicate
Summary of the method: as §1

[4] = system: EKO-35 araC::mexCD Pore; experiment: as above; details: for Fold changes of MICs: EKO-35 araC::mexCD Pore compared to EKO-35-Pore; for Minimum inhibitory concentration: EKO-35 araC::mexCD Pore, technical duplicate
Summary of the method: as §1

[5] = system: EKO-35 araC::acrBD408A Pore; experiment: as above; details: for Fold changes of MICs: EKO-35 araC::acrBD408A Pore compared to EKO-35-Pore; for Minimum inhibitory concentration: EKO-35 araC::acrBD408A Pore, technical duplicate
Summary of the method: as §1

[6] = system: EKO-35 araC::mdtEF Pore; experiment: as above; details: for Minimum inhibitory concentration, EKO-35 araC::mdtEF Pore: Table 14A, porinated, technical duplicate
Summary of the method: as §1

[7] = system: EKO-35 araC::acrD Pore; experiment: as above; details: for Fold changes of MICs: EKO-35 araC::acrD Pore compared to EKO-35-Pore; for Minimum inhibitory concentration, EKO-35 araC::acrD Pore: Table 14A, porinated, technical duplicate
Summary of the method: as §1

[8] = system: EKO-35 araC::emrAB Pore; experiment: as above; details: for Fold changes of MICs: EKO-35 araC::emrAB Pore compared to EKO-35-Pore; for Minimum inhibitory concentration: EKO-35 araC::emrAB Pore, technical duplicate
Summary of the method: as §1

[9] = system: EKO-35 araC::macAB Pore; experiment: as above; details: for Fold changes of MICs: EKO-35 araC::macAB Pore compared to EKO-35-Pore; for Minimum inhibitory concentration: EKO-35 araC::macAB Pore, technical duplicate
Summary of the method: as §1

[10] = system: EKO-35 araC::mdtBC Pore; experiment: as above; details: for Fold changes of MICs: EKO-35 araC::mdtBC Pore compared to EKO-35-Pore; for Minimum inhibitory concentration: EKO-35 araC::mdtBC Pore, technical duplicate
Summary of the method: as §1

[11] = system: EKO-35 araC::acrEF Pore; experiment: as above; details: for Minimum inhibitory concentration, EKO-35 araC::acrEF Pore: Table 14A, porinated, technical duplicate
Summary of the method: as §1

[12] = system: wild-type E. coli K-12 str. BW25113; experiment: microbe, parasite or virus in culture; details: technical duplicate; for Minimum inhibitory concentration (MIC), K-12: Table 10, without pore; for Minimum Inhibitory Concentration, K-12: Table 13A, non-porinated
Summary of the method: (§2)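 Steps: LB overnight culture at 37 °C; resuspension in PBS to OD600 ~1.0; 1/2000 dilution in MHB II; addition to 2-fold serial compound dilutions (duplicate); 18 h shaking incubation at 37 °C; OD600 read, with pre-read subtracted.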

[13] = system: E. coli ΔtolC; experiment: microbe, parasite or virus in culture; details: technical duplicate; for Minimum inhibitory concentration (MIC), ΔtolC: Table 10, without pore; for Minimum Inhibitory Concentration, ΔtolC: Table 13A, non-porinated
Summary of the method: as §2

[14] = system: E. coli EKO-35; experiment: microbe, parasite or virus in culture; details: for Fold change of MICs: EKO-35 compared to EKO-35 (reference); for Minimum inhibitory concentration (MIC), EKO-35: Table 10, without pore; for Minimum inhibitory concentration (MIC), EKO-35 / Minimum Inhibitory Concentration, EKO-35: technical duplicate; for Minimum Inhibitory Concentration, EKO-35: Table 13A, non-porinated
Summary of the method: as §2

[15] = system: EKO-35 araC::mdtEF; experiment: MIC susceptibility profiling, efflux platform; details: for Fold change of MICs: EKO-35 araC::mdtEF compared to EKO-35; for Minimum Inhibitory Concentration, EKO-35 araC::mdtEF: Table 13A, non-porinated, technical duplicate
Summary of the method: as §2

[16] = system: EKO-35 araC::mdtBC; experiment: MIC susceptibility profiling, efflux platform; details: for Fold change of MICs: EKO-35 araC::mdtBC compared to EKO-35; for Minimum Inhibitory Concentration, EKO-35 araC::mdtBC: Table 13B, non-porinated, technical duplicate
Summary of the method: as §2

[17] = system: ΔtolC-Pore; experiment: microbe, parasite or virus in culture; details: technical duplicate; for Minimum inhibitory concentration (MIC), Pore ΔtolC: Table 10, with pore; for Minimum inhibitory concentration, ΔtolC-Pore: Table 14A, porinated
Summary of the method: as §1

[18] = system: wild-type (WT) K-12-Pore; experiment: microbe, parasite or virus in culture; details: technical duplicate; for Minimum inhibitory concentration (MIC), Pore K-12: Table 10, with pore; for Minimum inhibitory concentration, K-12 (WT)-Pore: Table 14A, porinated
Summary of the method: as §1

Structure (SMILES) | Fold changes of MICs [1] [fold] | Minimum inhibitory concentration (MIC), Pore EKO-35 [1] [µg/mL] | Minimum inhibitory concentration, EKO-35-Pore [1] [µg/mL] | Fold changes of MICs [2] [fold] | Minimum inhibitory concentration, EKO-35 araC::acrB Pore [2] [µg/mL] | Fold changes of MICs [3] [fold] | Minimum inhibitory concentration [3] [µg/mL] | Fold changes of MICs [4] [fold] | Minimum inhibitory concentration [4] [µg/mL] | Fold changes of MICs [5] [fold] | Minimum inhibitory concentration [5] [µg/mL] | Minimum inhibitory concentration, EKO-35 araC::mdtEF Pore [6] [µg/mL] | Fold changes of MICs [7] [fold] | Minimum inhibitory concentration, EKO-35 araC::acrD Pore [7] [µg/mL] | Fold changes of MICs [8] [fold] | Minimum inhibitory concentration [8] [µg/mL] | Fold changes of MICs [9] [fold] | Minimum inhibitory concentration [9] [µg/mL] | Fold changes of MICs [10] [fold] | Minimum inhibitory concentration [10] [µg/mL] | other results
CC(C)c1ccc(C=C(C#N)c2nc3ccccc3[nH]2)cc1 [compound 12] | 1 | 160 | 160 | 2 | 320 | 2 | 320 | 2 | 320 | 2 | 320 | 320 | 1 | 160 | 2 | 320 | 2 | 320 | 2 | 320 | Fold changes of MICs ([11]; EKO-35 araC::acrEF Pore compared to EKO-35-Pore): 2 fold; Minimum inhibitory concentration, EKO-35 araC::acrEF Pore [11]: 320 µg/mL; Minimum inhibitory concentration (MIC), K-12 [12]: 320 µg/mL; Minimum Inhibitory Concentration, K-12 [12]: 320 µg/mL; Minimum inhibitory concentration (MIC), ΔtolC [13]: 1.25 µg/mL; Minimum Inhibitory Concentration, ΔtolC [13]: 1.25 µg/mL; Fold change of MICs [14]: 1 fold; Minimum inhibitory concentration (MIC), EKO-35 [14]: 320 µg/mL; Minimum Inhibitory Concentration, EKO-35 [14]: 320 µg/mL; Fold change of MICs [15]: 1 fold; Minimum Inhibitory Concentration, EKO-35 araC::mdtEF [15]: 320 µg/mL; Fold change of MICs [16]: 1 fold; Minimum Inhibitory Concentration, EKO-35 araC::mdtBC [16]: 320 µg/mL; Minimum inhibitory concentration (MIC), Pore ΔtolC [17]: 0.625 µg/mL; Minimum inhibitory concentration, ΔtolC-Pore [17]: 0.625 µg/mL; Minimum inhibitory concentration (MIC), Pore K-12 [18]: 320 µg/mL; Minimum inhibitory concentration, K-12 (WT)-Pore [18]: 320 µg/mL
O=C(NC(=O)N1CCc2c([nH]c3ccccc23)C1C(F)(F)F)c1ccccc1 (stereo not shown) [compound 13] | 1 | 5 | 5 | 64 | 320 | 1 | 2.5 | 1 | 5 | 1 | 5 | 40 | 2 | 10 | 2 | 10 | 1 | 5 | 1 | 5 | efflux pump-mediated resistance vs EKO-35-Pore ([4]; MexCD, OM compromised): no longer associated MexCD with resistance; Fold changes of MICs ([6]; EKO-35 araC::mdtEF Pore compared to EKO-35-Pore): 8 fold; Minimum inhibitory concentration, EKO-35 araC::acrEF Pore [11]: 20 µg/mL; Minimum inhibitory concentration (MIC), K-12 [12]: 320 µg/mL; Minimum Inhibitory Concentration, K-12 [12]: 320 µg/mL; Minimum inhibitory concentration (MIC), ΔtolC [13]: 1.25 µg/mL; Minimum Inhibitory Concentration, ΔtolC [13]: 1.25 µg/mL; Fold change of MICs [14]: 1 fold; Minimum inhibitory concentration (MIC), EKO-35 [14]: 40 µg/mL; Minimum Inhibitory Concentration, EKO-35 [14]: 40 µg/mL; susceptibility of EKO-35 to the compound ([14]; synthetic efflux substrates of FIG. 12): susceptible; Fold change of MICs [15]: 8 fold; Minimum Inhibitory Concentration, EKO-35 araC::mdtEF [15]: 320 µg/mL; Fold change of MICs [16]: 1 fold; Minimum Inhibitory Concentration, EKO-35 araC::mdtBC [16]: 40 µg/mL; Minimum inhibitory concentration (MIC), Pore ΔtolC [17]: 1.25 µg/mL; Minimum inhibitory concentration, ΔtolC-Pore [17]: 1.25 µg/mL; Minimum inhibitory concentration (MIC), Pore K-12 [18]: 320 µg/mL; Minimum inhibitory concentration, K-12 (WT)-Pore [18]: 320 µg/mL

— patent US20230407243A1, “GENETIC PLATFORM TO INVESTIGATE THE FUNCTIONS OF BACTERIAL DRUG EFFLUX PUMPS” (priority 2022, published 2023)
